Data on four molecules can be found in ChEMBL document CHEMBL5032523, “Discovery of thiazolidin-4-one analogue as selective GSK-3β inhibitor through structure based virtual screening” (Bioorg Med Chem Lett, 2021).

In experiment [1] the target is T1, Serine/threonine-protein kinase pim-1 (Homo sapiens, UniProt P11309). Briefly: Inhibition of PIM1 (unknown origin) at 10 uM relative to control.
Target sequence in this assay (P11309 whole entry, looked up): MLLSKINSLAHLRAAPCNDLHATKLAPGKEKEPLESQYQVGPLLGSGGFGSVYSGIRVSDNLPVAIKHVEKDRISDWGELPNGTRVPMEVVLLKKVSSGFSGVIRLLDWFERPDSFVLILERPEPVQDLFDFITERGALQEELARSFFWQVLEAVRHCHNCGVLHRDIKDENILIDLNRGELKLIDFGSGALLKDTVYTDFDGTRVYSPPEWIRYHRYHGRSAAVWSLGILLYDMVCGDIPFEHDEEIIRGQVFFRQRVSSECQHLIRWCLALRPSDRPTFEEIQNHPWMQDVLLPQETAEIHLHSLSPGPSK
Experiment [2] addresses T2, Cyclin-dependent kinase 5 (Homo sapiens, UniProt Q00535). Briefly: Inhibition of CDK5 (unknown origin) at 10 uM relative to control.
Target sequence in this assay (Q00535 whole entry, looked up): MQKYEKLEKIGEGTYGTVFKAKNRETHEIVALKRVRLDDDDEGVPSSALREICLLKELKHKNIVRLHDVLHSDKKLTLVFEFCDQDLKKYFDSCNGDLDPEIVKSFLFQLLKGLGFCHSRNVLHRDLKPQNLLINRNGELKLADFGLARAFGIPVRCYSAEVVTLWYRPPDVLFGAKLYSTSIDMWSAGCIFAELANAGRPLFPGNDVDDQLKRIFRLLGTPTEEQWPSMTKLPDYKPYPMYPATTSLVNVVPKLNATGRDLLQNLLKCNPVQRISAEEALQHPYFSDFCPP
The target in experiment [3] is T3, Serine/threonine-protein kinase haspin (Homo sapiens) (UniProt Q8TF76).
T3 sequence (whole entry): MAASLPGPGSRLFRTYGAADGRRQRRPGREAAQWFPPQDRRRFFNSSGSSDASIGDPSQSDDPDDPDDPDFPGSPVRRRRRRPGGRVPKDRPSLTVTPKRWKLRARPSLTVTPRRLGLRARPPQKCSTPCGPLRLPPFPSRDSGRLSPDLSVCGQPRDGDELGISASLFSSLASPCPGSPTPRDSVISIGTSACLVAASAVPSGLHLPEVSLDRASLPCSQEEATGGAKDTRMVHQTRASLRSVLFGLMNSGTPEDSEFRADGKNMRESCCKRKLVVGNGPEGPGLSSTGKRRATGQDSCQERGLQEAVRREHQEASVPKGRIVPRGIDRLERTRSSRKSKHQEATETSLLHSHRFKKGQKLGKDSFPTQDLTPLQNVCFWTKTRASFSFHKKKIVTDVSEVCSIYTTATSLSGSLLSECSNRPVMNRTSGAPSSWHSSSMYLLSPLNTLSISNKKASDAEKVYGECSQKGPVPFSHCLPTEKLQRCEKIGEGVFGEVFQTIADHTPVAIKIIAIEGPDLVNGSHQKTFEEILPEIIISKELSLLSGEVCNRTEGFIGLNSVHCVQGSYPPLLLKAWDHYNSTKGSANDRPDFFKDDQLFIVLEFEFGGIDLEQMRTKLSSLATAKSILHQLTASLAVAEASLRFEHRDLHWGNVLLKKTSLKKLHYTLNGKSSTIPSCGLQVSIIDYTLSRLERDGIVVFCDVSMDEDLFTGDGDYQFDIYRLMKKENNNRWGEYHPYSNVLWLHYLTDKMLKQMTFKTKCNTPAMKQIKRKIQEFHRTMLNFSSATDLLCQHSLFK
The experiment is described as follows: Inhibition of HASPIN (unknown origin) at 10 uM relative to control.

The target of experiment [4] is T4, Cyclin-dependent kinase 9 (Homo sapiens, UniProt P50750). Briefly: Inhibition of CDK9 (unknown origin) at 10 uM relative to control.
T4 sequence (P50750 whole entry): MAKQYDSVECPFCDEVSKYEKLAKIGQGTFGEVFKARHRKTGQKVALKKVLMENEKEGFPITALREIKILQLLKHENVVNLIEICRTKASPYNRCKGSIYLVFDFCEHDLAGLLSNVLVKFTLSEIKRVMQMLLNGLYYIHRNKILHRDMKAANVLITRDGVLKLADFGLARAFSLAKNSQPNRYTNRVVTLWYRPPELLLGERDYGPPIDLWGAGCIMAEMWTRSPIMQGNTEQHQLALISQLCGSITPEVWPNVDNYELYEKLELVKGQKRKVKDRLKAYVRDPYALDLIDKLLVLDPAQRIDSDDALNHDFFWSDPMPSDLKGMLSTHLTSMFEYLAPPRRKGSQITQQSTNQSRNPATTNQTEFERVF
Experiment [5] concerns the target T5, Casein kinase I delta/epsilon (Homo sapiens, UniProt P48730+P49674). Briefly: Inhibition of CK-1 delta/epsilon (unknown origin) at 10 uM relative to control. The experiment is classed as protein-complex assay.
Target sequence in this assay (P48730 whole entry, looked up): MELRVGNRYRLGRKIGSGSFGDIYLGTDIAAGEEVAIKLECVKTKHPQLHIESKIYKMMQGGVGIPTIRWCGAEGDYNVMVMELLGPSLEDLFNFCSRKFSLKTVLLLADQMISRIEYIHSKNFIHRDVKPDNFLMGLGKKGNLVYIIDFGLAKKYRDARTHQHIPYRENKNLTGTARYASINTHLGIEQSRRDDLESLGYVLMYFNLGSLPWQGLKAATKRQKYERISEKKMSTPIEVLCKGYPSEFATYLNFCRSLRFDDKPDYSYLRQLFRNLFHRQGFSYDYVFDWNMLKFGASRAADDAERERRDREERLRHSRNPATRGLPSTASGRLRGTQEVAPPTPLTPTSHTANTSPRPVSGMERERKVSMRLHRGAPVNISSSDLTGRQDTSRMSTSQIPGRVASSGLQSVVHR
Target sequence in this assay (P49674 whole entry, looked up): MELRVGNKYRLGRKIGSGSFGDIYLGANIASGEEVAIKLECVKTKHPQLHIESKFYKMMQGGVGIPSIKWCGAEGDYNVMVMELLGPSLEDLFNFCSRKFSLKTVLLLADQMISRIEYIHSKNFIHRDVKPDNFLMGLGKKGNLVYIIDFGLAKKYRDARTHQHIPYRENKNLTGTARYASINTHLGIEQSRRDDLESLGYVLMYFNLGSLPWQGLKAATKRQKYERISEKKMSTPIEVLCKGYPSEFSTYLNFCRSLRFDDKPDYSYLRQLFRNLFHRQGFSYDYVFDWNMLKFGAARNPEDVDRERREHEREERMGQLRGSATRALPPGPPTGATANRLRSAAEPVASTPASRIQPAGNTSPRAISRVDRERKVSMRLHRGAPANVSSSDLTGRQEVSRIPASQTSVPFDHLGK
For experiment [6], the target named is T6, Dual specificity tyrosine-phosphorylation-regulated kinase 1A (Homo sapiens, UniProt Q13627). The experiment is described as follows: Inhibition of DYRK1A (unknown origin) at 10 uM relative to control.
In experiment [7] the target is T7, Glycogen synthase kinase-3 beta (Homo sapiens, UniProt P49841). The experiment is described as follows: Inhibition of GSK3beta (unknown origin) at 10 uM relative to control.
Target sequence in this assay (P49841 whole entry, looked up): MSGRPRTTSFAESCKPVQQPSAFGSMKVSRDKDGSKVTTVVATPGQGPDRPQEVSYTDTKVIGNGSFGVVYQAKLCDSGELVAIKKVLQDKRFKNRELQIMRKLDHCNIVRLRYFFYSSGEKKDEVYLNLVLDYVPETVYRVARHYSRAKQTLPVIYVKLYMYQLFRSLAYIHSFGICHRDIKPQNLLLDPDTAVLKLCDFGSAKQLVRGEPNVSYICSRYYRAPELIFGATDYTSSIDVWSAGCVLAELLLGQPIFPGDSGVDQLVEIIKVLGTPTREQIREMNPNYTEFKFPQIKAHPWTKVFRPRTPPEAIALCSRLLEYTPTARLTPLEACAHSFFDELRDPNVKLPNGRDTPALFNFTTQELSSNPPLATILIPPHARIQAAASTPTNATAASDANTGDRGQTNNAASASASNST
In experiment [8] the target is T8, Dual specificity protein kinase CLK1 (Homo sapiens, UniProt P49759). The experiment is described as follows: Inhibition of CLK1 (unknown origin) at 10 uM relative to control.
Target sequence in this assay (P49759 whole entry, looked up): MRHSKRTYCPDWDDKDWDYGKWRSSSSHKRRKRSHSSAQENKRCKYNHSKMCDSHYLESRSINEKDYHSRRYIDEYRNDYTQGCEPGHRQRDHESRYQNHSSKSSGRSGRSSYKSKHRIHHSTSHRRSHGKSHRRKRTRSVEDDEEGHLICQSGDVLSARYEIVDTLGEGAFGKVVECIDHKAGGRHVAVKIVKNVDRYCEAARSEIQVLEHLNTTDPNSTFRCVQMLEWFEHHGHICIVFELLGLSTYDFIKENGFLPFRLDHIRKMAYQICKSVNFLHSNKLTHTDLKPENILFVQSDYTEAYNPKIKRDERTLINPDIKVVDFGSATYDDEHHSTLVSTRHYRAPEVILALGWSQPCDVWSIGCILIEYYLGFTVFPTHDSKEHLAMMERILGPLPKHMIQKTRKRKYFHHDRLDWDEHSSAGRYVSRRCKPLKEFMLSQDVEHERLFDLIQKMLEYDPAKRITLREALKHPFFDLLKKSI
Experiment [9] has as its target T2, Cyclin-dependent kinase 5. Briefly: Inhibition of CDK5 (unknown origin).
Target sequence in this assay (Q00535 whole entry): as the sequence (Q00535 whole entry, looked up) above
The target of experiment [10] is T1, Serine/threonine-protein kinase pim-1. Briefly: Inhibition of PIM1 (unknown origin).
Target sequence in this assay (P11309 whole entry): as the sequence (P11309 whole entry, looked up) above
The target in experiment [11] is T7, Glycogen synthase kinase-3 beta. The experiment is described as follows: Inhibition of GSK3beta (unknown origin).
Target sequence in this assay (P49841 whole entry): as the sequence (P49841 whole entry, looked up) above
Experiment [12] shares this target. Briefly: Non-competitive inhibition of GSK3beta (unknown origin) at 50 uM by ATP competitive assay.
Target sequence in this assay (P49841 whole entry, looked up): as above
The target of experiment [13] is T6, Dual specificity tyrosine-phosphorylation-regulated kinase 1A. The experiment is described as follows: Inhibition of DYRK1A (unknown origin).
Experiment [14] concerns the target T4, Cyclin-dependent kinase 9. Briefly: Inhibition of CDK9 (unknown origin).
The target of experiment [15] is T5, Casein kinase I delta/epsilon. The experiment is described as follows: Inhibition of CK-1 delta/epsilon (unknown origin). The experiment is classed as protein-complex assay.
Target sequence in this assay (P48730 whole entry): as the sequence (P48730 whole entry, looked up) above
Target sequence in this assay (P49674 whole entry): as the sequence (P49674 whole entry, looked up) above
Experiment [16] deals with T9, Serine/threonine-protein kinase haspin (Homo sapiens, UniProt Q8TF76).
T9 sequence (Q8TF76 whole entry): T3 sequence (whole entry)
The experiment is described as follows: Inhibition of HASPIN (unknown origin).

In experiment [17] the target is T8, Dual specificity protein kinase CLK1. The experiment is described as follows: Inhibition of CLK1 (unknown origin).
Target sequence in this assay (P49759 whole entry): as the sequence (P49759 whole entry, looked up) above

Active and inactive are the calls of the source. The rule behind the calls is not given here. Bounds are passed on as bounds.

For the molecule `Clc1ccccc1OCCc1cc([C@@H]2CCN(Cc3cccc4ncccc34)C2)n[nH]1`, the inhibition in [1] is 19%; in experiment [4], 18%; in experiment [5], 28%; in experiment [7], 5%; in experiment [8], 11%. Further, the inhibition entry in [2], in [3] and in experiment [6] was “inactive” throughout.

`Clc1cccc(OCCc2cc([C@@H]3CCN(Cc4cccc5ncccc45)C3)n[nH]2)c1`: the inhibition in experiment [1] was found to be 22%; in experiment [3] it was 33%; in [4], 29%; in experiment [5], 37%; in experiment [7] it was 10%; in experiment [8] it was 9%. For the same molecule, the inhibition entry in experiment [2] and in [6] was “inactive” each time.

As to `Cc1cc(C)c2cc(CN(CCc3ccccc3)Cc3nnnn3Cc3ccco3)c(=O)[nH]c2c1`, the inhibition in experiment [1] came out at 16%; in [2], 7%; in experiment [3], 29%; in experiment [4], 23%; in [5], 12%; in experiment [6], 6%. Besides, the inhibition in [7] was determined as 25%. In addition, the inhibition result in experiment [8] is “inactive”.

With `COc1cc(/C=C2\S/C(=N/c3ccc(C)c(C)c3)NC2=O)ccc1OCc1ccc2ccccc2c1`, the IC50 in experiment [9] was more than 10 µM; in experiment [10], more than 10 µM; in [11], 1.08 µM; in experiment [13] it was more than 10 µM; in [14] it was more than 10 µM; in experiment [15], more than 10 µM. Besides, the IC50 in [16] and in [17] was more than 10 µM in each case. The inhibition result in experiment [12] was “Active”. Further, the inhibition came to 29% in experiment [1]; 11% in experiment [2]; 22% in [3]; 29% in experiment [4]; 14% in [5]; 16% in [6]. The inhibition came out at 80% in experiment [7] and 22% in experiment [8].

The term inhibition denotes the drop in the measured response relative to a control, in per cent. One may read the IC50 as the point on the concentration scale where inhibition reaches its midpoint. High values mean lower potency, low ones higher potency.
